Laboratory results: ChEMBL document CHEMBL1153137, “Improving the developability profile of pyrrolidine progesterone receptor partial agonists” (Bioorg Med Chem Lett, 2010)

Columns and labels:
in vivo [1] = conditions: rat, iv
in vivo [2] = conditions: rat, iv; remark: listed apart in the source
in vivo [3] = conditions: rat, iv; remark: listed apart in the source
in vivo [4] = conditions: rat, iv; remark: listed apart in the source
in vivo [5] = conditions: rat, po, 4.2 mg/kg

Cc1ccccc1CN(c1ccc(C#N)c(Cl)c1)[C@H]1CCN(S(C)(=O)=O)C1
clearance (in vivo [1]): 98 mL/min/kg
Vd (in vivo [2]): 12 L/kg
Cmax (in vivo [3]): 221 ng/mL
half-life (in vivo [4]): 1.6 h
bioavailability (in vivo [5]): 100%
